Assay results reported in US9101611B1, “Use of sulfonylurea (Glimepiride) to lower blood glucose” (priority 2014, dated 2015).

Experiment: Stopping Glimepiride tablets after secondary failure, then resuming; effect on blood glucose
Format: in vivo, human
Settings: then resumed
Text: From new research, I found a new usage of sulfonylurea drug Glimepiride when secondary failure occurs. […] It is likely that recovery works because stopping taking the drug fools the human body to assume like the first day taking it which it is claimed.
Since pre-diabetes and/or diabetes have used sulfonylurea drugs since the mid-1950s (1), there is no new matter or invention of sulfonylurea drugs in this patent application. The newness in this patent application is the usage of sulfonylurea drug like Glimepiride that fails to work when secondary failure occurs by stopping taking the tablet for 3 or 5 days which automatically also lower blood glucose and then resuming taking it that works like the first day taking it. In essence, it prevents the patient from taking more dosage of medication and/or changing to another different medication.

With `CCC1=C(C)CN(C(=O)NCCc2ccc(S(=O)(=O)NC(=O)N[C@H]3CC[C@H](C)CC3)cc2)C1=O` [Glimepiride] the “effectiveness to lower blood glucose” value (tablets stopped for 3 days) was “recovers Glimepiride's effectiveness to lower blood glucose like the first day taking it” and the recovery effectiveness (tablets stopped for 5 days) was “recovery effectiveness was first detected”.
